Measured values as given in US20160222024A1, “S-ENANTIOMER OF TETRACYCLIC INDOLE DERIVATIVE AS PBR LIGANDS” (priority 2013, published 2016).
Read-outs that look alike come from different tables or passages of the source.

Key:
[1] = test system: TSPO; settings: in vitro assay; LABs compared with HABs; cited from earlier work
[2] = test system: TSPO; settings: compared with [11C]PBR28; cited from earlier work
[3] = test system: TSPO; settings: ratio of low affinity site to high affinity site; resolved enantiomers
Description: (§1) Membrane protein was prepared from human platelets obtained from 4 donor whole blood samples. Two of these donor samples were previously identified as having high affinity and 2 identified as having low affinity based on PBR28 binding affinity. Platelet pellets were homogenized in 10 ml buffer 1 (0.32 mM sucrose, 5 mM Tris base, 1 mM MgCl2, pH 7.4, 4° C.). The homogenates were centrifuged at 48,000×g for 15 minutes at 4° C. in a Beckman J2-MC centrifuge. The supernatant was removed and pellets were re-suspended in at least 10 ml buffer 2 (50 mM Tris base, 1 mM MgCl2, pH 7.4, 4° C.) and washed by centrifugation at 48,000×g for 15 mM at 4° C. in buffer 2. Membranes were suspended in 2 ml buffer 2 and the protein concentration was determined using Protein Assay Kit II (Bio Rad cat #500-0002). Aliquots were stored at −80° C. until use.
(§2) Aliquots of membrane suspension were thawed and homogenized with assay buffer 3 (50 mM Tris base, 140 mM NaCl, 1.5 mM MgCl2, 5 mM KCl, 1.5 mM CaCl2, pH 7.4, 37° C.). […] Compound 1 was diluted on a Beckman Biomek 2000 workstation at 11 serial dilutions ranging from 1 μM to 0.01 nM. GE180 was diluted at 11 serial dilutions ranging from 100 μM to 1 nM. Total and nonspecific binding assessments were also performed. 160 μL of platelet membranes diluted to 30 μg/mL were added to the assay plate for a final volume of 200 μL/well. Assay plates were incubated at 37° C. for at least one hour with termination of incubation by filtering onto GF/B glass fiber plates (Perkin Elmer; cat #6005177) pre-soaked in 0.1% PEI in saline for 60 minutes. Assay plates were rinsed five to six times with ice cold buffer 4 (50 mM Tris Base, 1.4 mM MgCl2, pH 7.4, 4° C.) on a Perkin Elmer Filtermate 196. Plates were then dried, the bottoms sealed, and 50 μL of MicroScint 20 (Perkin Elmer cat #6013621) was added to each well. After sealing the tops, the plates were allowed to equilibrate for at least 30 minutes and the captured radioactivity was counted on a Perkin Elmer TopCount NTX.

[4] = target: T1, TSPO (Homo sapiens, UniProt P30536); test: biochemical
Description: as §1, §2

[5] = target: T2, TSPO (Homo sapiens, UniProt P30536, T147A); test: biochemical
Description: as §1, §2

[6] = test system: TSPO; settings: ratio of low affinity site to high affinity site; racemates
Description: (§3) Membrane protein was prepared from human platelets obtained from 4 donor whole blood samples. […] Platelet pellets were homogenized in 10 ml buffer 1 (0.32 mM sucrose, 5 mM Tris base, 1 mM MgCl2, pH 7.4, 4° C.). The homogenates were centrifuged at 48,000×g for 15 minutes at 4° C. in a Beckman J2-MC centrifuge. The supernatant was removed and pellets were re-suspended in at least 10 ml buffer 2 (50 mM Tris base, 1 mM MgCl2, pH 7.4, 4° C.) and washed by centrifugation at 48,000×g for 15 mM at 4° C. in buffer 2. Membranes were suspended in 2 ml buffer 2 and the protein concentration was determined using Protein Assay Kit II (Bio Rad cat #500-0002). Aliquots were stored at −80° C. until use.
(§4) Aliquots of membrane suspension were thawed and homogenized with assay buffer 3 (50 mM Tris base, 140 mM NaCl, 1.5 mM MgCl2, 5 mM KCl, 1.5 mM CaCl2, pH 7.4, 37° C.). […] GE180 was diluted at 11 serial dilutions ranging from 100 μM to 1 nM. Total and nonspecific binding assessments were also performed. 160 μL of platelet membranes diluted to 30 μg/mL were added to the assay plate for a final volume of 200 μL/well. Assay plates were incubated at 37° C. for at least one hour with termination of incubation by filtering onto GF/B glass fiber plates (Perkin Elmer; cat #6005177) pre-soaked in 0.1% PEI in saline for 60 minutes. Assay plates were rinsed five to six times with ice cold buffer 4 (50 mM Tris Base, 1.4 mM MgCl2, pH 7.4, 4° C.) on a Perkin Elmer Filtermate 196. Plates were then dried, the bottoms sealed, and 50 μL of MicroScint 20 (Perkin Elmer cat #6013621) was added to each well. After sealing the tops, the plates were allowed to equilibrate for at least 30 minutes and the captured radioactivity was counted on a Perkin Elmer TopCount NTX.

[7] = target: T1, TSPO; test: biochemical; remark: listed apart in the source
Description: as §3, §4

[8] = target: T2, TSPO; test: biochemical; remark: listed apart in the source
Description: as §3, §4

T1 sequence (P30536 2-169): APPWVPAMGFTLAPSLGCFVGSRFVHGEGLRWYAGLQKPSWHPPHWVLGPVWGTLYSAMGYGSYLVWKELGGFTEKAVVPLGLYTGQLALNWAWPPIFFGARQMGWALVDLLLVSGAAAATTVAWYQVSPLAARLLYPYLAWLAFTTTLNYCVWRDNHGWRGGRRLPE
T2 sequence (P30536 2-169 T147A): as the sequence (P30536 2-169) above, with T146A counted along it

SMILES	Low:High affinity ratio [3]	Ki [4]	Ki [5]	other results
COc1ccccc1CN(C(C)=O)c1cnccc1Oc1ccccc1 [[^3H]PBR28]	–	–	–	lower TSPO affinity in LABs than in HABs [1]: more than 10 fold
CCC(C)N(C)C(=O)c1cc2ccccc2c(-c2ccccc2Cl)n1 (stereo not shown) [[^11C]PK11195]	–	–	–	in vivo specific binding in monkey brain, lower than that reported for [11C]PBR28 [2]: ~80 fold
COc1ccccc1CN(C(C)=O)c1cnccc1Oc1ccccc1 [PBR28, N-(2-methoxybenzyl)-N-(4-phenoxypyridin-3-yl)acetamide]	28	117 nM	4 nM	–
CCN(CC)C(=O)[C@H]1Sc2ccccc2-c2c1c1ccc(OC)cc1n2CC[18F] [Compound 1 E2]	1	4 nM	3 nM	–
CCN(CC)C(=O)[C@H]1CCCc2c1c1c(OC)cccc1n2CCF (stereo in doubt) [GE180, 9-(2-Fluoro-ethyl)-5-methoxy-2,3,4,9-tetrahydro-1H-carbazole-4-carboxylic acid diethylamide]	3	–	–	Low:High affinity ratio [6]: 15.44
CCN(CC)C(=O)[C@@H]1Sc2ccccc2-c2c1c1ccc(OC)cc1n2CCF [Compound 1 E1]	2	31 nM	15 nM	–
CCN(CC)C(=O)C1Sc2ccccc2-c2c1c1c(OC)cccc1n2CCF (racemic) [Compound 1, N,N-diethyl-11-(2-fluoroethyl)-7-methoxy-6,11-dihydrothiochromeno[4,3-b]indole-6-carboxamide]	–	–	–	Low:High affinity ratio [6]: 9.87; Ki [7]: 0.51 nM; Ki [8]: 0.05 nM
